Data reported in PubChem BioAssay AID248 (DTP/NCI, 2004).
Where “and” joins values, the source holds several entries; their conditions need not be identical. Equal values may be shown once. Toxic doses and inconclusive results are not listed. No stated cut-off is given here; in the data, active means T/C of 150% or more; inactive means T/C below 125%.

Test system: L1210 leukemia ip in BDF1 mice, survival T/C
Assay: NCI In Vivo Anticancer Drug Screen. Data for tumor model L1210 Leukemia (intraperitoneal) in B6D2F1 (BDF1) mice
Conditions: endpoint: mean survival time, higher = longer survival
How it was run: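 Mice bearing the transplanted tumor received compound or vehicle. Survival of the treated group was divided by that of the vehicle-treated control group to give the ratio.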

[1] = dose: 100.0 mg/kg/injection, schedule: Q04DX003 (ip), vehicle: saline with Tween-80
[2] = dose: 200.0 mg/kg/injection, schedule: Q04DX003 (ip), vehicle: saline with Tween-80
[3] = dose: 400.0 mg/kg/injection, schedule: Q04DX003 (ip), vehicle: saline with Tween-80
[4] = dose: 100.0 mg/kg/injection, schedule: Q01DX001 (ip), vehicle: saline
[5] = dose: 200.0 mg/kg/injection, schedule: Q01DX001 (ip), vehicle: saline
[6] = dose: 400.0 mg/kg/injection, schedule: Q01DX001 (ip), vehicle: saline
[7] = dose: 12.5 mg/kg/injection, schedule: Q01DX009 (ip), vehicle: saline with Tween-80
[8] = dose: 12.5 mg/kg/injection, schedule: Q04DX003 (ip), vehicle: saline with Tween-80
[9] = dose: 25.0 mg/kg/injection, schedule: Q01DX009 (ip), vehicle: saline with Tween-80
[10] = dose: 25.0 mg/kg/injection, schedule: Q04DX003 (ip), vehicle: saline with Tween-80
[11] = dose: 100.0 mg/kg/injection, schedule: Q01DX009 (ip), vehicle: Klucel (hydroxypropylcellulose) (HPC)
[12] = dose: 200.0 mg/kg/injection, schedule: Q01DX009 (ip), vehicle: Klucel (hydroxypropylcellulose) (HPC)
[13] = dose: 400.0 mg/kg/injection, schedule: Q01DX009 (ip), vehicle: Klucel (hydroxypropylcellulose) (HPC)
[14] = dose: 50.0 mg/kg/injection, schedule: Q01DX009 (ip), vehicle: saline with Tween-80
[15] = dose: 100.0 mg/kg/injection, schedule: Q01DX009 (ip), vehicle: saline with Tween-80
[16] = dose: 200.0 mg/kg/injection, schedule: Q01DX009 (ip), vehicle: saline with Tween-80
[17] = dose: 100.0 mg/kg/injection, schedule: Q01DX001 (ip), vehicle: carboxymethylcellulose (CMC)
[18] = dose: 200.0 mg/kg/injection, schedule: Q01DX001 (ip), vehicle: carboxymethylcellulose (CMC)

Measured: T/C

Cc1c(C2=CC(=O)c3ccccc3C2=O)[nH]c2ccccc12
inactive: dose: 50.0 mg/kg/injection, schedule: Q01DX001 (ip), vehicle: other 93 % of control | dose: 100.0 mg/kg/injection, schedule: Q01DX001 (ip), vehicle: other 91 % of control | dose: 200.0 mg/kg/injection, schedule: Q01DX001 (ip), vehicle: other 102 % of control | dose: 400.0 mg/kg/injection, schedule: Q01DX001 (ip), vehicle: other 106 % of control

CC(C)(C)CC(C)(C)c1ccc(OCCOS(=O)(=O)c2cccc([N+](=O)[O-])c2)cc1
inactive: [1] 94 % of control | [2] 90 % of control

CCOC(=O)NCC(CCN1CCCC1)(c1cccc2ccccc12)C(C)C (stereo not drawn)
inactive: dose: 12.5 mg/kg/injection, schedule: Q01DX009 (ip), vehicle: Klucel (hydroxypropylcellulose) (HPC) 104 % of control | dose: 12.5 mg/kg/injection, schedule: Q04DX003 (ip), vehicle: Klucel (hydroxypropylcellulose) (HPC) 87 % of control | dose: 25.0 mg/kg/injection, schedule: Q01DX009 (ip), vehicle: Klucel (hydroxypropylcellulose) (HPC) 102 % of control | dose: 50.0 mg/kg/injection, schedule: Q01DX009 (ip), vehicle: Klucel (hydroxypropylcellulose) (HPC) 101 % of control | dose: 50.0 mg/kg/injection, schedule: Q04DX003 (ip), vehicle: Klucel (hydroxypropylcellulose) (HPC) 95 % of control

O=C(Cc1ccc(F)cc1)c1ccccc1
inactive: [1] 98 % of control | [2] 98 % of control | [3] 96 % of control

C[Si](C)(C)Oc1c(Cl)cc(Cl)cc1Cl
inactive: [1] 102 % of control | [2] 98 % of control | [3] 91 % of control

O=C1OC2=C(c3ccccc3)C(=O)OC2=C1c1ccccc1
inactive: [4] 97 % of control | [5] 104 % of control | [6] 95 % of control

C[n+]1c2ccccc2c(N=[N+]=[N-])c2ccccc21
inactive: dose: 6.25 mg/kg/injection, schedule: Q01DX001 (ip), vehicle: suspension in saline 98 % of control | dose: 12.5 mg/kg/injection, schedule: Q01DX001 (ip), vehicle: suspension in saline 98 % of control | dose: 12.5 mg/kg/injection, schedule: Q04DX003 (ip), vehicle: suspension in saline 97 % of control | dose: 25.0 mg/kg/injection, schedule: Q01DX001 (ip), vehicle: suspension in saline 98 % of control | dose: 25.0 mg/kg/injection, schedule: Q04DX003 (ip), vehicle: suspension in saline 95 % of control | dose: 50.0 mg/kg/injection, schedule: Q04DX003 (ip), vehicle: suspension in saline 105 % of control

CCOC(=O)NCC(CCN(C)CC)(c1cccc2ccccc12)C(C)C (stereo not drawn)
inactive: [7] 93 % of control | [8] 93 % of control | [9] 98 % of control | [10] 98 % of control | dose: 50.0 mg/kg/injection, schedule: Q04DX003 (ip), vehicle: saline with Tween-80 93 % of control

CC1CCCC(C)N1CC(O)c1ccccc1 (stereo not drawn)
inactive: dose: 6.25 mg/kg/injection, schedule: Q04DX003 (ip), vehicle: saline with Tween-80 94 % of control | [8] 97 % of control | [10] 97 % of control

O=C(N/N=C/c1c(O)ccc2ccccc12)c1ccccc1
inactive: [11] 113 % of control | [12] 103 % of control | [13] 108 % of control

NCCCCC(N)C(=O)NCCCNCCCCNCCCNC(=O)C(N)CCCCN (stereo not drawn)
inactive: dose: 3.0 mg/kg/injection, schedule: Q01DX Z (ip), vehicle: saline 104 % of control | dose: 10.0 mg/kg/injection, schedule: Q01DX Z (ip), vehicle: saline 94 % of control | dose: 30.0 mg/kg/injection, schedule: Q01DX Z (ip), vehicle: saline 93 % of control | dose: 100.0 mg/kg/injection, schedule: Q01DX Z (ip), vehicle: saline 106 % of control

CCCCCCC(=O)C(CCCC)(C(=O)OCC)C(=O)OCC
inactive: [11] 101 % of control | [12] 104 % of control | [13] 101 % of control

Nc1cccc[n+]1CC1(c2ccccc2)OCCO1
inactive: dose: 50.0 mg/kg/injection, schedule: Q01DX001 (ip), vehicle: Klucel (hydroxypropylcellulose) (HPC) 110 % of control | dose: 100.0 mg/kg/injection, schedule: Q01DX001 (ip), vehicle: Klucel (hydroxypropylcellulose) (HPC) 106 % of control

c1ccc2sc(SCCSc3nc4ccccc4s3)nc2c1
inactive: dose: 6.25 mg/kg/injection, schedule: Q01DX009 (ip), vehicle: saline with Tween-80 93 % of control | dose: 6.25 mg/kg/injection, schedule: Q04DX002 (ip), vehicle: saline with Tween-80 100 % of control | [7] 97 % of control | dose: 12.5 mg/kg/injection, schedule: Q04DX002 (ip), vehicle: saline with Tween-80 89 % of control | [9] 95 % of control | dose: 25.0 mg/kg/injection, schedule: Q04DX002 (ip), vehicle: saline with Tween-80 89 % of control

CCCCC=C1CC(C)CC(C)C1 (stereo not drawn)
inactive: [14] 93 % of control | [15] 93 % of control

Cc1cc(=O)[nH]c(Nc2ccccc2)n1
inactive: [15] 90 % of control | [16] 93 % of control | dose: 400.0 mg/kg/injection, schedule: Q01DX009 (ip), vehicle: saline with Tween-80 90 % of control

CC(=O)Nc1cc2c(cc1[N+](=O)[O-])-c1ccccc1/C2=N\O
inactive: [17] 106 % of control | [18] 94 % of control | dose: 400.0 mg/kg/injection, schedule: Q01DX001 (ip), vehicle: carboxymethylcellulose (CMC) 111 % of control

c1ccc(C(=C(c2ccccc2)c2ccccc2)c2ccccc2)cc1
inactive: [11] 99 % of control | dose: 100.0 mg/kg/injection, schedule: Q04DX003 (ip), vehicle: Klucel (hydroxypropylcellulose) (HPC) 97 % of control | [12] 94 % of control | dose: 200.0 mg/kg/injection, schedule: Q04DX003 (ip), vehicle: Klucel (hydroxypropylcellulose) (HPC) 97 % of control | [13] 92 % of control | dose: 400.0 mg/kg/injection, schedule: Q04DX003 (ip), vehicle: Klucel (hydroxypropylcellulose) (HPC) 96 % of control

C[n+]1cccc(SC2CCC3CC4CC3C2C4)c1 (stereo not drawn)
inactive: [14] 91 % of control

[Cl][Hg][Cl].c1ccc(CSc2ccccc2)cc1
inactive: dose: 5.0 mg/kg/injection, schedule: Q01DX001 (ip), vehicle: carboxymethylcellulose (CMC) 105 % of control

CC(=O)OC1CCC2(C)C(CCC3C2CC(OC(C)=O)C2(C)C3CCC2C2(C)SCCS2)C1 (stereo not drawn)
inactive: dose: 100.0 mg/kg/injection, schedule: Q04DX002 (ip), vehicle: Klucel (hydroxypropylcellulose) (HPC) 94 % of control | dose: 400.0 mg/kg/injection, schedule: Q04DX002 (ip), vehicle: Klucel (hydroxypropylcellulose) (HPC) 87 % of control

Cc1c(Cl)cccc1NC(=O)Oc1ccc(Cl)cc1Cl
inactive: [14] 94 % of control | [15] 103 % of control | [16] 106 % of control

CCOc1cc(/C=N\Nc2nnc(C)n2N)c(C)cc1N(CCCl)CCCl
inactive: dose: 10.5 mg/kg/injection, schedule: Q01DX015 (ip), vehicle: carboxymethylcellulose (CMC) 119 % of control | dose: 18.0 mg/kg/injection, schedule: Q01DX015 (ip), vehicle: carboxymethylcellulose (CMC) 109 % of control | dose: 44.0 mg/kg/injection, schedule: Q01DX001 (ip), vehicle: carboxymethylcellulose (CMC) 110 % of control | dose: 50.0 mg/kg/injection, schedule: Q01DX001 (ip), vehicle: carboxymethylcellulose (CMC) 120 % of control | dose: 67.0 mg/kg/injection, schedule: Q01DX001 (ip), vehicle: carboxymethylcellulose (CMC) 110 % of control and 116 % of control | [17] 111 % of control and 124 % of control | dose: 150.0 mg/kg/injection, schedule: Q01DX001 (ip), vehicle: carboxymethylcellulose (CMC) 105 % of control and 90 % of control | [18] 105 % of control

OCC1OC(n2cnc3c(SSc4ncnc5c4ncn5C4OC(CO)C(O)C4O)ncnc32)C(O)C1O (stereo not drawn)
inactive: [4] 95 % of control | [5] 106 % of control | [6] 121 % of control

CCOC(C)(C)C
inactive: [4] 97 % of control | [5] 103 % of control | [6] 106 % of control

C=CC(C)C1CCC2(C)C3=C(C(=O)CC12C)C1(C)CCC(OC(C)=O)C(C)(C)C1=C(OC(C)=O)C3=O (stereo not drawn)
inactive: [1] 91 % of control | [2] 91 % of control | [3] 87 % of control

COc1cc2c(cc1O)C(=O)CCC=C2
inactive: dose: 50.0 mg/kg/injection, schedule: Q01DX009 (ip), vehicle: other 102 % of control | dose: 100.0 mg/kg/injection, schedule: Q01DX009 (ip), vehicle: other 98 % of control | dose: 200.0 mg/kg/injection, schedule: Q01DX009 (ip), vehicle: other 94 % of control
